Experiments:
[1] = tested on: rabbit monoclonal antibody to Melatonin; assay: Cross reactivity in Rapid Melatonin ELISA (competitive, melatonin-HRP); format: binding; details: tested at 10 to 20-fold above the highest standard (50 pg/ml); predicted value as melatonin divided by actual concentration added
Description: A microtitre plate (described below) is coated with the rabbit monoclonal antibody to Melatonin. Melatonin in standards and unknowns competes with Melatonin linked to horseradish peroxidase for the antibody binding sites. After incubation unbound components are washed away. Bound Melatonin peroxidase is measured by the reaction of the peroxidase enzyme on the substrate tetramethylbenzidine (TMB). This reaction produces a blue color. A yellow color is formed after stopping the reaction with 2-molar sulfuric acid. Optical density is read on a standard plate reader at 450 nm. The amount of Melatonin peroxidase detected is inversely proportional to the amount of Melatonin present.
Microwell plates (CoStar High Binder) were coated overnight with 0.5 ug/ml goat anti-rabbit at room temperature [100 uL/well]; Coating Buffer-NaHCO3 (2.93 g)+Na2CO3 (1.59 g) in 1000 ml Water, pH 9.6 under controlled humidity. After washing the plates 3 times in a wash buffer comprised of PBS (phosphate buffered saline) with 0.05% Tween 20, the plates were then coated with the rabbit monoclonal at 10 ng/ml in PBS with 0.01% BSA (bovine serum albumin) overnight at room temperature under controlled humidity. The plates were again washed and coated with 0.5% Stabilcoat (Surmodics) containing 0.1% normal rabbit serum. After approximately 2 hours the plates were aspirated, dried and pouched.
A primary dilution of Melatonin-HRP was made at 50 ug/ml in […]® Conjugate stabilizer (Pierce-Thermo) for storage. At the time of the assay, it is then diluted to 100 ng/ml in a phosphate or Tris Buffered Saline, pH 7.2 with 1% BSA (Diluent).
Melatonin reference material from Cerilliant was diluted in diluent to 50 pg/ml. The standard curve was prepared by making 2× serial dilutions to 0.78 pg/ml in Diluent. Pipette: 100 ul Melatonin Standards/Samples/Controls to each well of the coated microwell plate. Pipette: 50 ul conjugate to each well. Incubate: 3 hr at 2-8° C. or Room Temperature with shaking (˜500 rpm). Wash: 4×300 uL, no soak. Pipette: 100 uL tetramethylbenzidine (TMB). Incubate: Room Temp for 30 min with shaking. Pipette: 50 uL 2M H2SO4. Mix 10-15 seconds. Read Plate: OD 450-630 nm.
Chemical compounds with structural similarity to melatonin were tested at levels 10 to 20-fold higher than the highest standard (50 pg/ml) as samples. The predicted value (as melatonin) was divided by the actual concentration added to calculate % cross-reactivity.

[2] = tested on: rabbit monoclonal antibody to Melatonin; assay: Specificity of Salimetrics Salivary Melatonin kit, cross reactants spiked into saliva; format: binding; details: spiked into saliva up to 2000 pg/ml; melatonin EC50 (B/Bo=0.5) divided by cross reactant EC50
Description: The Salimetrics™ Salivary Melatonin kit is a competitive immunoassay designed and validated for the quantitative measurement of salivary melatonin. The assay format and detection method are illustrated in FIG. 3, and are briefly summarized as follows: A microtitre plate is coated with rabbit monoclonal antibody to melatonin. Melatonin in standards, controls and unknowns compete with melatonin linked to horseradish peroxidase for the antibody binding sites on the microplate. After incubation, unbound components are washed away. Bound melatonin peroxidase is measured by the reaction of the horseradish peroxidase enzyme with the substrate tetramethylbenzidine (TMB). This reaction produces a blue color. A yellow color is formed after stopping the reaction with 2-molar acid solution. Optical density is read on a standard microplate reader at 450 nm-630 nm. The amount of melatonin-tagged peroxidase detected, as measured by the intensity of color, is inversely proportional to the amount of melatonin present in the sample.
Step 2: Keep the desired number of strips in the strip holder and place the remaining strips back in the foil pouch. Reseal the foil pouch with unused wells and desiccant. Store at 2-8° C. […] Step 3: Pipette 8 ml of Melatonin Assay Diluent into a disposable tube. (Scale down proportionally if not using a full plate). Set aside for Step 5. Step 4: Pipette 100 μL, of standards, controls, and unknown samples into appropriate wells. Standards, controls, and unknown samples should be assayed in duplicate. • Pipette 100 μL, of Melatonin Assay Diluent into 2 wells for the 0 Standard. Step 5: Dilute the enzyme conjugate 1:500 by adding 16 μL of the conjugate to the 8 ml of melatonin assay diluent prepared in Step 3. (Scale down proportionally if not using the entire plate.) Conjugate tube may be centrifuged for a few minutes to bring the liquid down to the tube bottom. Immediately mix the diluted conjugate solution and add 50 μL to each well using a multichannel pipette. Step 6: Place adhesive cover (provided) over plate. Mix plate constantly on a plate rotator at 500 rpm and incubate at 2-8° C. for a total of 3 hours. Step 7: Wash the plate 4 times with 1× wash buffer. A plate washer is recommended. However, washing may be done by gently squirting wash buffer into each well with a squirt bottle, or by pipetting 300 μL, of wash buffer into each well and then discarding the liquid by inverting the plate over a sink. After each wash, the plate should be thoroughly blotted on paper towels before turning upright. If using a plate washer, blotting is still recommended after the last wash. Step 8: Add 100 μL of TMB substrate solution to each well with a multichannel pipette. Step 9: Incubate the plate in the dark at room temperature for 30 minutes mixing constantly on a plate rotator at 500 rpm. Step 10: Add 50 μL of 2M stop solution with a multichannel pipette. Step 11: Mix on a plate rotator for 3 minutes at 500 rpm. Spillage may occur if mixing speed exceeds 600 rpm. If green color remains, continue mixing until green color turns to yellow. Be sure all wells have turned yellow. • Wipe off bottom of plate with a water-moistened, lint-free cloth and wipe dry. • Read in a plate reader at 450 nm with a secondary filter at 620 to 630 nm. Performance characteristics are not known without secondary or reference filter. Read the plate within 10 minutes of adding 2M stop solution. High and Low salivary Melatonin controls should be run with each assay. The control ranges established are to be used as a guide. Each laboratory should establish its own range. Variations between laboratories may be caused by differences in techniques and instrumentation.
Calculations • 1. Compute the average optical density (OD) for all duplicate wells. • 2. Calculate the percent bound (B/Bo) for each standard, control and unknown by dividing the OD of each well (B) by the average OD for the 0 (Bo). • 3. […]

[3] = Storage stability of melatonin in saliva samples; format: physicochemical; details: after 4 days at 2-8° C.
Description: Sample Handling and Preparation • After collection it is important to keep samples cold, to minimize bacterial growth in the specimen. Refrigerate sample within 30 minutes, and freeze at or below −20° C. within 4 hours of collection. […] On day of assay, thaw the saliva samples completely, vortex, and centrifuge at 1500×g (@3000 rpm) for 15 minutes. Centrifuging removes mucins and other particulate matter which may interfere with antibody binding, leading to falsely elevated results. Samples should be at room temperature before adding to assay plate. Pipette clear sample into appropriate wells. Re-freeze saliva samples as soon as possible after adding to the assay plate. Centrifuge/re-centrifuge saliva samples each time that they are thawed. Avoid more than 2 freeze-thaw cycles after the initial freeze/thaw.

Which “Cross Reactivity (%)” value [1] does the source give for `COc1ccc2[nH]cc(CCN)c2c1` [5-methoxy tryptamine] here?
Its value is <0.05%.

And the “Cross Reactivity” value [2]?
The value was <0.05%.

With `COc1cc2c(CCNC(C)=O)c[nH]c2cc1Cl` [6-chloro melatonin] as the compound, how does the “Cross Reactivity (%)” value [1] read?
Its value is 5.40%.

And the “Cross Reactivity” value [2]?
Its value is 5.40%.

Which “Cross Reactivity (%)” value [1] does the source give for `COc1ccc2[nH]cc(CCO)c2c1` [5-methoxy tryptophol] here?
Its value is 1.30%.

And the “Cross Reactivity” value [2]?
The value was 1.25%.

Which “Cross Reactivity (%)” value [1] does the source give for `Cn1c(=O)c2c(ncn2C)n(C)c1=O` [Caffeine] here?
Its value is <0.05%.

What about the “Cross Reactivity” value [2] of the same compound?
The value was <0.05%.

For `COc1cc2c(CCNC(C)=O)c[nH]c2cc1O` [6-hydroxy melatonin], which “Cross Reactivity (%)” value [1] is on record?
The value was <0.05%.

And the “Cross Reactivity” value [2]?
Its value is <0.05%.

For `CC(=O)NCCc1c[nH]c2ccc(O)cc12` [N-acetyl serotonin], which “Cross Reactivity (%)” value [1] is on record?
Its value is <0.05%.

And the “Cross Reactivity” value [2]?
The value was <0.05%.

For `COc1ccc2[nH]cc(CCNC(C)=O)c2c1` [Melatonin, N-acetyl-5-methoxytryptamine], which “Decrease of Melatonin levels” value [3] is on record?
Its value is ≥ 20%.

Which “Cross Reactivity (%)” value [1] does the source give for `COc1ccc(NC=O)c(C(=O)CCNC(C)=O)c1` [AFMK, N^1-acetyl-N^2-formyl-5-methoxykynuramine] here?
The value was 16.5%.

What about the “Cross Reactivity” value [2] of the same compound?
The value was 16.5%.

With `N[C@@H](Cc1c[nH]c2ccccc12)C(=O)O` [L-Tryptophan] as the compound, how does the “Cross Reactivity (%)” value [1] read?
Its value is <0.05%.

What about the “Cross Reactivity” value [2] of the same compound?
Its value is <0.05%.

Which “Cross Reactivity (%)” value [1] does the source give for `NCCc1c[nH]c2ccc(O)cc12` [Serotonin] here?
Its value is <0.05%.

And the “Cross Reactivity” value [2]?
The value was <0.05%.

— patent US10787512B2, “Melatonin monoclonal antibody, detection, methods and uses thereof” (SALIMETRICS, LLC, priority 2013, dated 2020)
